Measurements as given in US10508109B2 (priority 2015, dated 2019).
Structures can show the parent of a compound that is named as a salt. Where two headings read alike, the source gives them in different places.

Columns and labels:
A549 = assay: Cell-based assay, anti-proliferative activity (Cell Counting Kit-8, 72 hours); conditions: Homo sapiens, read-out: IC50 (μM) A549
Summary of the method: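 Cells were seeded in 96-well plates and exposed to candidate inhibitors. Cellular growth was then determined with the colorimetric kit, and IC50 values were calculated from the growth data.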

CCD-18Co = assay: as above; conditions: Homo sapiens, read-out: IC50 (μM) CCD-18Co
Summary of the method: (§1)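 IC50 values reflect cell growth measured by Cell Counting Kit-8 following 72 hours of inhibitor exposure across a twofold dilution range up to 100 micro-M.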

HCT-116 = assay: as above; conditions: Homo sapiens, read-out: IC50 (μM) HCT-116
Summary of the method: as §1

HFL1 = assay: as above; conditions: Homo sapiens, read-out: IC50 (μM) HFL1
Summary of the method: as §1

PC14 = assay: as above; conditions: Homo sapiens, read-out: IC50 (μM) PC14
Summary of the method: as §1

SUV39H2 = SUV39H2 (Homo sapiens (Human), UniProt Q9H5I1); conditions: read-out: IC50 (μM) Suv 39H2 assay
[1] = A549 cells, Cell Counting Kit-8, 72 hours
[2] = CCD-18Co cells, Cell Counting Kit-8, 72 hours
[3] = HCT-116 cells, Cell Counting Kit-8, 72 hours
[4] = HFL1 cells, Cell Counting Kit-8, 72 hours
[5] = PC-14, PC14 cells, Cell Counting Kit-8, 72 hours
[6] = A549 cells, 72 hours, Cell Counting Kit-8
[7] = CCD-18Co cells, 72 hours, Cell Counting Kit-8
[8] = HCT-116 cells, 72 hours, Cell Counting Kit-8
[9] = HFL1 cells, 72 hours, Cell Counting Kit-8
[10] = PC-14, PC14 cells, 72 hours, Cell Counting Kit-8

SUV39H2, sequence (Q9H5I1 whole entry): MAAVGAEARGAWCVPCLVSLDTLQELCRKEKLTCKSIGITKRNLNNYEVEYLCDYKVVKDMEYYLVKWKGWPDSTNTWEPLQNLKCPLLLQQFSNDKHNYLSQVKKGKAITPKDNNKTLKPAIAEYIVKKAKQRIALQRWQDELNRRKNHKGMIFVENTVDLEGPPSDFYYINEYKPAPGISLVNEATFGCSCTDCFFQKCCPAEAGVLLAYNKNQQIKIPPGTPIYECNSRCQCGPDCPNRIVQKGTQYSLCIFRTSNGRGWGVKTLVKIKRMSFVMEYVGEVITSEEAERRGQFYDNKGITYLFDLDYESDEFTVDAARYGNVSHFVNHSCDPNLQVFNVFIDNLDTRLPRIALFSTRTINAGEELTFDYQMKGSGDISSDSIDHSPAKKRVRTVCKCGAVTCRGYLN

Row | SMILES | IC50 (A549; [1]) [µM] | IC50 (CCD-18Co; [2]) [µM] | IC50 (HCT-116; [3]) [µM] | IC50 (HFL1; [4]) [µM] | IC50 (PC14; [5]) [µM] | IC50 (SUV39H2; enzyme assay) [µM] | IC50 (A549; [6]) [µM] | IC50 (CCD-18Co; [7]) [µM] | IC50 (HCT-116; [8]) [µM] | IC50 (HFL1; [9]) [µM] | IC50 (PC14; [10]) [µM] | IC50 (A549; A549, 72 h) [µM] | IC50 (CCD-18Co; CCD-18Co, 72 h) [µM] | IC50 (HCT-116; HCT-116, 72 h) [µM] | IC50 (HFL1; HFL1, 72 h) [µM] | IC50 (PC14; PC-14, 72 h) [µM] | IC50 (SUV39H2) [µM]
1 | COc1cc(OC)c(-c2cn3ccc(N4CCC(NC(C)=O)C4)cc3n2)cc1Cl (stereo not drawn) [Example 37, N-(1-(2-(5-chloro-2,4-dimethoxyphenyl)imidazo[1,2-a]pyridin-7-yl)pyrrolidin-3-yl)acetamide] | 14 | 11 | 12 | 5.4 | 8.2 | 0.00435 |  |  |  |  |  |  |  |  |  |  | 
2 | COc1cc(C)c(-c2cn3ccc(N4CCN(S(=O)(=O)C5CC5)C(CO)C4)cc3n2)cc1Cl (stereo not drawn) [Example 262, (4-(2-(5-chloro-4-methoxy-2-methylphenyl)imidazo[1,2-a]pyridin-7-yl)-1-(cyclopropylsulfonyl)piperazin-2-yl)methanol] |  |  |  |  |  | 0.0453 | 2.4 | 5.5 | 3.2 | 3.2 | 1.1 |  |  |  |  |  | 
3 | COc1cc(OC)c(-c2cn3ccc(N4CCN(C(=O)C5CC5)CC4)nc3n2)cc1Cl [Example 242, (4-(2-(5-Chloro-2,4-dimethoxyphenyl)imidazo[1,2-a]pyrimidin-7-yl)-piperazin-1-yl)(cyclopropyl)methanone] |  |  |  |  |  | 0.0154 | 10 | 10 | 10 | 10 | 6.3 |  |  |  |  |  | 
4 | COc1cc(OC)c(-c2cn3ccc(N4CCC(NC(=O)OC(C)(C)C)C4)cc3n2)cc1Cl (stereo not drawn) [Example 23, tert-butyl{1-[2-(5-chloro-2,4-dimethoxyphenyl)imidazo[1,2-a]pyridin-7-yl]pyrrolidin-3-yl}carbamate] | 2.4 | 2.8 | 1.8 | 1.2 | 1.7 | 0.00635 |  |  |  |  |  |  |  |  |  |  | 
5 | CCS(=O)(=O)NC1CCN(c2ccn3cc(-c4cc(Cl)c(OC)cc4OC)nc3c2)CC1 [Example 173, N-{1-[2-(5-chloro-2,4-dimethoxyphenyl)imidazo[1,2-a]pyridin-7-yl]piperidin-4-yl}ethanesulfonamide] | 1.5 | 0.99 | 1.9 | 0.53 | 1.6 | 0.00961 |  |  |  |  |  |  |  |  |  |  | 
6 | COC(=O)N1CCN(c2ccn3cc(-c4cc(Cl)c(OC)cc4OCCCN(C)C)nc3c2)CC1 [Example 152, methyl 4-(2-(5-chloro-2-(3-(dimethylamino)propoxy)-4-methoxyphenyl)-imidazo[1,2-a]pyridin-7-yl)piperazine-1-carboxylate] | 6.4 | 5.3 | 7.1 | 1.9 | 2.7 | 0.0199 |  |  |  |  |  |  |  |  |  |  | 
7 | CCOP(=O)(CCN1CCN(c2ccn3cc(-c4cc(Cl)c(OC)cc4OC)nc3c2)CC1)OCC [Example 202, diethyl (2-(4-(2-(5-chloro-2,4-dimethoxyphenyl)imidazo[1,2-a]pyridin-7-yl)piperazin-1-yl)ethyl)phosphonate] | 10 | 5.6 | 10 | 7.2 | 8 | 0.0064 |  |  |  |  |  |  |  |  |  |  | 
8 | CNC1CCN(c2ccn3cc(-c4cc(Cl)c(OC)cc4OC)nc3c2)CC1 [Example 24, 1-(2-(5-chloro-2,4-dimethoxyphenyl)imidazo[1,2-a]pyridin-7-yl)-N-methylpiperidin-4-amine hydrochloride] |  |  |  |  |  |  |  |  |  |  |  | 5.5 | 11 | 4.4 | 2.7 | 5.7 | 0.00939
9 | COc1cc(OC)c(-c2nc3cc(N4CCN(C(=O)OC(C)(C)C)CC4)ccn3c2Br)cc1Cl [Example 271, tert-butyl 4-(3-bromo-2-(5-chloro-2,4-dimethoxy-phenyl)imidazo[1,2-a]pyridin-7-yl)piperazine-1-carboxylate] |  |  |  |  |  | 0.0267 | 1.3 | 1.4 | 1.5 | 1.2 | 0.57 |  |  |  |  |  | 
10 | COc1cc(OC)c(-c2cn3ccc(-c4ccc(C(=O)NCC5CCNCC5)cc4)cc3n2)cc1Cl [Example 267, 4-(2-(5-chloro-2,4-dimethoxyphenyl)imidazo[1,2-a]pyridin-7-yl)-N-(piperidin-4-ylmethyl)benzamide] |  |  |  |  |  | 0.0458 | 10 | 10 | 10 | 10 | 10 |  |  |  |  |  | 
